Results: paper PMC4929710, “Specificity and mechanism of action of alpha-helical membrane-active peptides interacting with model and biological membranes by single-molecule force spectroscopy” (Scientific Reports, 2016)

How the values were obtained:
[1] = Circular dichroism (CD) analysis; format: physicochemical; settings: for α-Helix (%) 50% TFE / α-Helix (%) Benign: relative to molar ellipticity of A12L/A20L in 50% TFE; for [θ]222 Benign / [θ]222 50% TFE: CD, 25 °C; for [θ]222 Benign: benign buffer pH 7.0, 100 mM KCl, 50 mM KH2PO4/K2HPO4; for [θ]222 50% TFE: benign buffer:TFE 1:1 vol/vol; for α-Helix (%) Benign: benign buffer
Description: The secondary structures of the peptides were determined using a Jasco J-810 CD spectrometer (Jasco, Easton, MD) at 25 °C [12]. The benign buffer (pH 7.0, 100 mM KCl, 50 mM KH2PO4/K2HPO4) was used to simulate the hydrophilic environment and 50% 2,2,2-trifluoroethanol (TFE) (benign buffer: TFE = 1: 1, vol/vol) was used to simulate the hydrophobic environment. The mean residue molar ellipticities at 222 nm, [θ]222 (degree·cm^2·dmol^−1), were used to calculate the relative helical contents of MAPs[24].
CD spectroscopy illustrated the secondary structure of peptide analogs under benign environment and 50% TFE to mimic the hydrophobic conditions of cell membranes. CD results are shown in Supplementary Table S2 and Fig. S1. […] The helical content (%) of peptides in two groups relative to the molar ellipticity value of the peptide A12L/A20L in 50% TFE. In addition, except the peptide of V13E, the relative helicity of the peptides are in the same order of V13L>V13A>V13S>V13K and A12L/A20L>A20L>L6A>L6A/L17A in the benign and hydrophobic environments and also in the same order with the peptide hydrophobicity.

[2] = system: SGC7901 cells; format: cell-based, human; settings: 24 h
Description: (§1) The MTT cell proliferation assay was used to investigate the anticancer activity and cytotoxicity of MAPs against cancer cell lines (HeLa, A549, SGC-7901, and B16) and normal cells (3T3-L1), respectively. Cells (5 × 10^3) were seeded in 96-well plates and incubated overnight. The peptide samples were then added to cells with final concentrations ranging from 1 μM to 125 μM. After 24 h, 20 μL of 5 mg/mL MTT solution in PBS was added to the cells and treated for 4 h at 37 °C. The formazan crystals were dissolved by 150 μL of dimethyl sulfoxide (DMSO). Finally, the absorbance was determined at 492 nm. The results were expressed as IC50, representing the concentration at which cell viability was reduced by 50%. All assays were repeated in triplicate.

[3] = system: A549 cells; format: cell-based, human; settings: 24 h
Description: as §1

[4] = system: HeLa cells; format: cell-based, human; settings: 24 h
Description: as §1

[5] = system: E. coli ATCC25922; format: cell-based; settings: ATCC25922, 24 h
Description: (§2) Then, 10 μL of peptides was added. […] All assays were repeated in triplicate.

[6] = system: S. epidermidis ATCC12228; format: cell-based; settings: ATCC12228, 24 h
Description: as §2

[7] = system: gram-negative bacteria (P. aeruginosa and E. coli); format: cell-based
Description: as §2

[8] = system: S. aureus ATCC25923; format: cell-based; settings: ATCC25923, 24 h
Description: as §2

[9] = system: P. aeruginosa ATCC27853; format: cell-based; settings: ATCC27853, 24 h
Description: as §2

[10] = system: 3T3-L1 cells; format: cell-based, mouse; settings: 24 h
Description: as §1

[11] = system: B16 cells; format: cell-based, mouse; settings: 24 h
Description: as §1

[12] = RP-HPLC retention time (peptide hydrophobicity); format: physicochemical; settings: used as measure of peptide hydrophobicity
Description: All peptides were synthesized by solid-phase peptide synthesis using Fmoc (9-fluorenyl-methoxycar-bonyl) chemistry and rink amide 4-methylbenzhydrylamine resin (MBHA resin; 0.8 mmol/g), as described previously. The crude peptides were purified on a LC-6A preparative reversed-phase high performance liquid chromatography (RP-HPLC, Shimadzu, Kyoto, Japan) using a Zorbax 300 SB-C8 column (250 × 9.4 mm inner diameter, […] particle size, 300 Å pore size), as described previously. The purity of the peptides was characterized by analytical RP-HPLC, mass spectrometry, and amino acid analysis.

[13] = system: PC/SM/PE/PS/Chol (4.35:4.35:1:0.3:1 w/w) LUVs; assay: Tryptophan fluorescence with LUVs; format: binding; settings: PC/SM/PE/PS/Chol (4.35:4.35:1:0.3:1 w/w) LUVs versus HEPES buffer, 25 °C
Source text: (§3) In order to investigate the interaction between peptides and difference types of cell membranes, three different LUVs were used to mimic a prokaryotic cell membrane (PC/PG), a normal eukaryotic cell membrane (PC/Chol), and a cancer cell membrane (PC/SM/PE/PS/Chol). Tryptophan residue in the peptide sequence was used as a fluorescent probe to examine the interaction of peptides with model membranes. […] For example, in the PC/PG (7:3 w/w) anionic prokaryotic mimicking model membrane, peptides V13L and A12L/A20L had the strongest hydrophobicity with blue shift values of approximately 37 nm and 38 nm, respectively. Conversely, peptide V13E with a negative charge of glutamic acid residue, and peptide L6A/L17A with the lowest hydrophobicity had blue shift values of approximately 18 nm and 17 nm, respectively. […] In addition, within PC/SM/PE/PS/Chol (4.35:4.35:1:0.3:1 w/w) as a cancer-mimicking model membrane, the same results could be obtained in that peptide hydrophobicity correlates with anticancer activity and the blue shift values of peptides.
(§4) In accordance with previously described methods, LUVs were prepared with PC/PG (7:3 w/w), PC/Chol (8:1 w/w), and PC/SM/PE/PS/Chol (4.35:4.35:1:0.3:1 w/w) to mimic prokaryotic cell, […], membranes, respectively. Lipids using the freeze-thaw method as described previously, followed by extrusion through […] double-stacked nuclepore filters using an Mini-Extruder (Avanti Polar Lipids, Inc.)[11][27].
(§5) Three kinds of LUVs were prepared and cultured in HEPES buffer (pH 7.4, 10 mM HEPES, 150 mM NaCl) and the molar concentration was adjusted to 100 μM. A total of 14 μL of 100 μM MAPs was mixed with 686 μL of 100 μM liposomes at 25 °C for 10 min. A Shimadzu RF-5301PC, (excitation wavelength of […], emission wavelength of 300–450 nm) was used to measure the tryptophan fluorescence. Potassium iodide (KI) as a quencher was added to the previous reaction system for a final concentration of 0.02–0.08 M, respectively. The experimental data were plotted according to the Stern–Volmer equation F0/F = 1 + Ksv[Q], where F0 and F are the fluorescence intensity in the absence or presence of a quencher at concentration [Q], respectively, and Ksv is the Stern–Volmer quenching constant.

[14] = system: PC/Chol (8:1 w/w) LUVs; assay: Tryptophan fluorescence with LUVs; format: binding; settings: PC/Chol (8:1 w/w) LUVs versus HEPES buffer, 25 °C
Source text: as §3, §4, §5

[15] = system: PC/PG (7:3 w/w) LUVs; assay: Tryptophan fluorescence with LUVs; format: binding; settings: PC/PG (7:3 w/w) LUVs versus HEPES buffer, 25 °C
Source text: as §3, §4, §5

[16] = system: gram-positive bacteria (S. aureus and S. epidermidis); format: cell-based
Description: as §2

Substance	α-Helix (%) 50% TFE [1] [%]	[θ]222 Benign [1] [degree·cm^2·dmol^−1]	[θ]222 50% TFE [1] [degree·cm^2·dmol^−1]	α-Helix (%) Benign [1] [%]	IC50 [2] [µM]	IC50 [3] [µM]	IC50 [4] [µM]	G− MIC E. coli ATCC25922 [5] [µM]	G+ MIC S. epidermidis ATCC12228 [6] [µM]	G− MIC GM [7] [µM]	G+ MIC S. aureus ATCC25923 [8] [µM]	G− MIC P. aeruginosa ATCC27853 [9] [µM]	IC50 [10] [µM]	IC50 [11] [µM]	tR (RP-HPLC retention time) [12] [min]	PC/SM/PE/PS/Chol Blueshift [13] [nm]	PC/Chol Blue shift [14] [nm]	PC/PG Blue shift [15] [nm]	G+ MIC GM [16] [µM]
Ac-KWKSFAKTFKSAKKTVLHTALKAISS-NH2 [Peptide L6A]	70.67	−3836.18	−30626.20	8.85	78.9	92.4	94.7	64	64	89.44	>125	125	87.3	74.7	36.053	23	1	19	–
Ac-KWKSFLKTFKSAAKTVLHTALKAISS-NH2 [Peptide V13A]	79.68	−6524.79	−34527.20	15.06	2.33	6.83	5.52	4	2	5.66	8	8	6.79	3.62	47.337	–	4	34	4
Ac-KWKSFLKTFKSASKTVLHTALKAISS-NH2 [Peptide V13S]	71.30	−4400.44	−30899.20	10.15	4.27	12.1	12.2	8	4	8	8	8	17	5.61	43.038	–	3	27	5.66
